Laboratory results published in patent US12187717B2, “Compound and use thereof in treating autoimmune diseases” (PARENCHYMA BIOTECH INC., priority 2022, dated 2025).
Read-outs that look alike come from different tables or passages of the source.

Tests used:
[1] = tested on: DSS-induced inflammatory bowel disease; experiment: DSS-induced inflammatory bowel disease model: severity index and colon weight:length ratio; type: in vivo, C57BL/6 mice; settings: 10 mg/kg oral daily, compared to solvent control
Experimental: On day 0 of the experiment, a 2.0% DSS solution prepared by dissolving DSS (Dextran sulfate sodium, MP biomedicals, Cat No. 160110) in […] was given for drinking to C57BL/6 mice (11 weeks old, female, 20±2 g) for 7 days. The 2.0% DSS solution was changed at an interval of 2 days. Sterile distilled water was provided for drinking from the 8th day of the experiment. Body weight and severity index were measured at an interval of 2 days from the 0th day of the experiment in order to confirm the onset of inflammatory bowel disease.
10 mg/kg of Compound 6 per mouse was completely dissolved in an ethanol-Cremophor EL mixture corresponding to 7.5% (v/v) of the administered dose, and then, was diluted in phosphate buffered saline to prepare the final ethanol:Cremophor EL:phosphate buffered saline (0.375:0.375:9.25, v/v/v), followed by oral administration of 200 μl daily for a total of 14 times from the 1st to 14th days of the experiment. An inflammatory bowel disease severity index was visually observed and recorded at an interval of 2 days according to a severity index system classified into 0 to 10 levels.
Inflammatory bowel disease symptoms were evaluated by summing the scores of three items according to the following items (Table 2).

[2] = tested on: experimental autoimmune encephalomyelitis (EAE); experiment: Experimental autoimmune encephalomyelitis (EAE) model of multiple sclerosis; type: in vivo, C57BL/6 mice; settings: 10 mg/kg oral daily, 15th to 20th days; 21st day; 0-5 stages; solvent control 2.9±1.92
Experimental: On day 0 of the experiment, myelin oligodendrocyte glycoprotein (MOG) 35-55 peptide (MOG35-55, Peptron) (200 μg), heat killed Mmycobacterium tuberculosis, Difco, Cat No. 231141) (500 μg), and an adjuvant (incomplete freund's adjuvant, Sigma Aldrich, Cat No. F5506) were mixed for 7 minutes to form an emulsion. MOG35-55 emulsion was subcutaneously injected into both flanks of C57BL/6 mice (7-8 weeks old, female), respectively, and then 100 μl of pertussis toxin (Sigma Aldrich, Cat No. P2980) (200 ng) was administered into the tail vein. On the 2nd day of the experiment, an equal amount of pertussis toxin was administered intravenously. […]
In the compound 6 administration group according to an embodiment of the present invention, 10 mg/kg of Compound 6 per mouse was completely dissolved in an ethanol-Cremophor EL mixture corresponding to 7.5% (v/v) of the administered dose, and then, was diluted in phosphate buffered saline to prepare the final ethanol:Cremophor EL:phosphate buffered saline (0.375:0.375:9.25, v/v/v), followed by oral administration with 200 μl of the prepared solution daily for a total of 6 times from the 15th to 20th days of the experiment. The multiple sclerosis index was visually observed and recorded in the severity index system classified into 0-5 stages. […]

[3] = tested on: colitis-associated colorectal cancer (CA-CRC); experiment: AOM/DSS colorectal cancer model, therapeutic administration; type: in vivo, C57BL/6 mice; settings: 10 mg/kg oral, 50th to 63rd days (treatment)
Experimental: AOM (Sigma Aldrich, Cat No. A5486) was diluted with physiological saline so as to be a concentration of 10 mg/kg, and then administered intraperitoneally to C57BL/6 mice (8 weeks old, female, 18±2 g) by […] for a total of 3 times at an interval of 7 days (Experiment day 0, 7, 14th). On the 7th day of the experiment, a 1.5% DSS solution prepared by dissolving 1.5% DSS in sterile distilled water was given for drinking to the mice for 7 days. Further, the 1.5% DSS solution was changed at an interval of 2 days. Sterile distilled water was provided for drinking from the 8th day of the experiment. In the compound 6 administration group according to an embodiment of the present invention, 10 mg/kg of Compound 6 per mouse was completely dissolved in an ethanol-Cremophor EL mixture corresponding to 7.5% (v/v) of the administered dose, and then, was diluted in phosphate buffered saline to prepare the final ethanol:Cremophor EL:phosphate buffered saline (0.375:0.375:9.25, v/v/v), followed by oral administration with 200 μl of the prepared solution. In order to confirm the preventive effect, Compound 6 was administered for a total of 14 times from the 7th to the 20th days of the experiment. The effects of Compound 6 according to an embodiment of the present invention on treating colon cancer was confirmed. From the 50th to the 63rd days of the experiment, DSS was administered on the 7th and 14th days after AOM administration to the mice to induce colon cancer, and Compound 6 was administered 14 times from the 50th to the 63rd days. […] That is, it was confirmed that Compound 6 was effective in treating colon cancer (FIGS. 13 and 14). Therefore, it was confirmed that Compound 6 can be used as an effective preventive and therapeutic agent for colon cancer.

[4] = Pharmacokinetic parameters after oral or intravenous administration; type: in vivo; settings: rats; for bioavailability: read-out: Bioavailability (F %); for increase of AUClast compared to Comparative Example 1 / increase of Cmax compared to Comparative Example 1: oral
Experimental: For rats, an oral administration group was fasted for 16 hours, and an intravenous administration group was subjected to intravenous administration with 10 mL/kg of solution prepared by completely dissolving Compound 6 in an ethanol-Cremophor EL mixture corresponding to 7.5% (v/v) of the administered dose, and then diluting in phosphate buffered saline so as to be the final ethanol:Cremophor EL:phosphate buffered saline (0.375:0.375:9.25, v/v/v), without fasting, at the dose concentration listed in Table 3. The oral administration group was supplied with food about 4 hours after administration. Blood collection was performed on the intravenous administration group after 0.083, 0.5, 1, 2, 4, 8, 24 hours from the administration and on the oral administration group after 0.5, 1, 2, 4, 8, 12, 24 hours from the administration, and plasma was recovered using centrifugation. In the recovered plasma, the drug concentration in the plasma was measured using UHPLC-MS/MS method.

[5] = rat, plasma, Intravenous (IV), 1 mg/kg
[6] = rat, plasma, Oral (PO), 10 mg/kg
[7] = rat, plasma, Oral (PO), 50 mg/kg
[8] = Oral (PO), 10 mg/kg (reference dose, dose ratio 1)
[9] = Oral (PO), 50 mg/kg relative to 10 mg/kg (dose ratio 5)
[10] = 10 mg/kg vs Comparative Example 1 at 10 mg/kg
[11] = 50 mg/kg vs Comparative Example 1 at 100 mg/kg

Structure (SMILES): O=C(Cc1c[nH]c2ccc(Cl)cc12)Nc1nc2ccc(N3CCOCC3)cc2s1 [Compound 6, 2-(5-chloro-1H-indol-3-yl)-N-(6-morpholinobenzo[d]thiazol-2-yl)acetamide]
- inflammatory bowel disease severity index ([1]; 10th day): statistically significant therapeutic effects
- colon weight:length ratio ([1]; 15th day): significantly suppressed
- disease severity index (EAE) [2]: 0.92±0.58
- body weight ([3]; after 70 days): increase in the body weight similar to that of normal mice
- number of tumors ([3]; vs control): significantly smaller
- size of tumors ([3]; vs control): significantly smaller
- AUC(0-t) [4, 5]: 1160 ng·h/mL
- C0 [4, 5]: 1420 ng/mL
- clearance [4, 5]: 14.4 mL/min/kg
- half-life [4, 5]: 1.04 h
- Vd ([4]; rat, plasma, Intravenous (IV), 1 mg/kg, read-out: Vdss): 0.924 L/kg
- AUC(0-t) [4, 6]: 4350 ng·h/mL
- Cmax [4, 6]: 742 ng/mL
- Tmax [4, 6]: 2 h
- half-life [4, 6]: 2 h
- bioavailability [4, 6]: 37.3%
- AUC(0-t) [4, 7]: 43100 ng·h/mL
- Cmax [4, 7]: 4590 ng/mL
- Tmax [4, 7]: 4 h
- half-life [4, 7]: 3.83 h
- bioavailability [4, 7]: 73.9%
- AUClast Ratio [4, 8]: 1.0
- Cmax ratio [4, 8]: 1.0
- AUClast Ratio [4, 9]: 9.9
- Cmax ratio [4, 9]: 6.2
- increase of AUClast compared to Comparative Example 1 [4, 10]: 5.9 times
- increase of Cmax compared to Comparative Example 1 [4, 10]: 11.9 times
- increase of AUClast compared to Comparative Example 1 [4, 11]: 66.8 times
- increase of Cmax compared to Comparative Example 1 [4, 11]: 30.2 times
